Test results: BindingDB's records for doi:10.1016/j.chembiol.2011.01.012 (University of Luxembourg, 2011)

Tests used:
[1] = target: Tyrosine-protein kinase JAK1 (Homo sapiens, UniProt P23458); assay: Enzyme Assay; conditions: pH 7.5; 30 °C
[2] = target: Non-receptor tyrosine-protein kinase TYK2 (Homo sapiens, UniProt P29597); assay: Enzyme Assay; conditions: pH 7.5; 30 °C
Non-receptor tyrosine-protein kinase TYK2, sequence (P29597 whole entry): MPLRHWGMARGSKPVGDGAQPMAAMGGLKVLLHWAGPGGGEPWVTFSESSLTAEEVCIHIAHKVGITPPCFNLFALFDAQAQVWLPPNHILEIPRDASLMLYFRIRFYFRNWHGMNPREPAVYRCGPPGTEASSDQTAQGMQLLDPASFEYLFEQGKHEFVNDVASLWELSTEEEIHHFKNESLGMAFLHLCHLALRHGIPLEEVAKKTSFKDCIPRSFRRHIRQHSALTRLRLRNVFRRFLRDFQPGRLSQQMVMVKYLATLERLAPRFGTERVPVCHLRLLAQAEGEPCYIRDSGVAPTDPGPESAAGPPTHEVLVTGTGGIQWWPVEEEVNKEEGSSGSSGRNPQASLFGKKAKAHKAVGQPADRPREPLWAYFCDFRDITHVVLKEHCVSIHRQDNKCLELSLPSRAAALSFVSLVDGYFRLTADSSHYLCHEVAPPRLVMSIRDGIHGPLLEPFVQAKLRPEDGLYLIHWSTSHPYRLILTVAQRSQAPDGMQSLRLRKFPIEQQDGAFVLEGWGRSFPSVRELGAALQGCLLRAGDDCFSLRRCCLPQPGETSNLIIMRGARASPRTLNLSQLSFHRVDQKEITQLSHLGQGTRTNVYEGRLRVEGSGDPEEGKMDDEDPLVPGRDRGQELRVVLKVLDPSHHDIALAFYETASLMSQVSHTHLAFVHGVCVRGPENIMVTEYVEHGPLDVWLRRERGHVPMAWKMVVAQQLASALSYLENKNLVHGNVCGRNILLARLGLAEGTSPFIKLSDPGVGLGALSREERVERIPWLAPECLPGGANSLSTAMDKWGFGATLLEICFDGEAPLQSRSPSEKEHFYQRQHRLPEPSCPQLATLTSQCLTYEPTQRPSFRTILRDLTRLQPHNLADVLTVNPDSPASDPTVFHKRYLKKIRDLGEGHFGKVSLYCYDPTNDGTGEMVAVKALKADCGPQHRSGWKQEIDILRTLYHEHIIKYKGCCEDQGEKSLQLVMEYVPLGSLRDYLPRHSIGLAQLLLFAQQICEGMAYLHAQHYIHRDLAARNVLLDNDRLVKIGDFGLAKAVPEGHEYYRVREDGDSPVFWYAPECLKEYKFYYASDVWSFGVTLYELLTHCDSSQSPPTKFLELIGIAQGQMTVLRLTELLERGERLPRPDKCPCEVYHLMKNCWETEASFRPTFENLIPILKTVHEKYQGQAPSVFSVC

Tyrosine-protein kinase JAK1, sequence (P23458 whole entry): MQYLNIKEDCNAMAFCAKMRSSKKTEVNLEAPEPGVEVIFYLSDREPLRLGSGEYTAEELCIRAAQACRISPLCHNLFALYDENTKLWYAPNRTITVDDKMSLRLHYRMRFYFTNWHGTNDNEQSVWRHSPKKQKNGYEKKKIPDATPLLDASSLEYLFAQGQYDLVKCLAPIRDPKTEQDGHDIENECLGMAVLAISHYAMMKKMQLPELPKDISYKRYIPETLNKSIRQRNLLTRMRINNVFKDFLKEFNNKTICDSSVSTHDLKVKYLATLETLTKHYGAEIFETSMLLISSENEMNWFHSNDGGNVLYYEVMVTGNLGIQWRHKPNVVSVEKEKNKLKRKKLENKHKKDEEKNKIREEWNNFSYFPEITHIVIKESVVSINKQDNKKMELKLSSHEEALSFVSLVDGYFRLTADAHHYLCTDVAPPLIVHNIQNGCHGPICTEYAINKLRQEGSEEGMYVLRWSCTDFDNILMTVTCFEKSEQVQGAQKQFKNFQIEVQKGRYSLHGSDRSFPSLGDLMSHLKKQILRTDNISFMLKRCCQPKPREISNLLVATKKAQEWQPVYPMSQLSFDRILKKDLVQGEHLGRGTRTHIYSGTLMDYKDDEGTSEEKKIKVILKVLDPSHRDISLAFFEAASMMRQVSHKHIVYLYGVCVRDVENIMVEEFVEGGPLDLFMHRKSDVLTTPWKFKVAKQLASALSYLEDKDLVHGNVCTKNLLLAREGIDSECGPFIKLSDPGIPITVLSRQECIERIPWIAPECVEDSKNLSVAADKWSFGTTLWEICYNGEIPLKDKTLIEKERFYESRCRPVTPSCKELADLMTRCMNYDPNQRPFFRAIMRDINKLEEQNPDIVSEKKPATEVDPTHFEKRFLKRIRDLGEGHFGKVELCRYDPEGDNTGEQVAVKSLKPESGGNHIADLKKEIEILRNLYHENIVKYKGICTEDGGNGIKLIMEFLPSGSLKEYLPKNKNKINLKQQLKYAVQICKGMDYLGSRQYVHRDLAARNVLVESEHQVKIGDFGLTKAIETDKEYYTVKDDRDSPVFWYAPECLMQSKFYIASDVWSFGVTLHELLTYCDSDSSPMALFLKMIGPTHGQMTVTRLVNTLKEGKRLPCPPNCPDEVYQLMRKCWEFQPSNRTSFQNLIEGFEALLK

CC(C)(O)C(=O)N1CCN(c2ccc(C(F)(F)F)c(C3=C(c4c[nH]c5ccccc45)C(=O)NC3=O)c2)CC1 [NIBR3049]
IC50 [1]: 1.02 µM
IC50 [2]: 8.05 µM
